# Earlier results, collected in patent US6432453B1, “Dietary supplement containing glycerol ester of conjugated linoleic acid and rosemary extract containing carnosic acid” (Metagenics, Inc., priority 2000, dated 2002).
# Where two headings read alike, the source gives them in different places.
# Experiments:
# [1] = CLA-supplemented subjects, three months, no change of diet
# [2] = free fatty acid form
substance,measurement,setting,value
conjugated linoleic acid [CLA],body fat lost,[1],up to 20%
same,half-life (oxidation),[2]; 25° C.,336 h
same,half-life (oxidation),[2]; 75° C.,7 h
